Source: US20250311722A1, “IMPROVED BIOCIDE” (Purgos ApS, priority 2022, published 2025)
Where “and” joins values, the source holds several entries; their conditions need not be identical. Equal values may be shown once.

Experiments:
[1] = test system: Bacillus cereus ISI 842; experiment: Minimal inhibitory concentration (MIC); type: cell-based
Description: (§1) Minimum inhibitory concentrations (MICs) are defined as the lowest concentration of an antimicrobial that will inhibit the visible growth of a microorganism after a standardized incubation. In the present study, MIC assay was performed by pipetting robot. The principle is that an indicator microorganism at a defined cell density is cultured with a range of concentrations of the test compound, one concentration pr, well in a row on the microtiter plate. For bacteria and yeasts the minimal inhibitory concentration was detected as no increase of optical density (OD), for moulds microtiter plates were read visually. Each indicator organism is tested in duplicate and the MIC is calculated as the average of the two determinations. The tested concentrations of the antimicrobial substances were 2-fold dilutions from 5%. All indicator organisms (see Table 2.) were pre-cultivated in a suitable growth medium and diluted in the same medium to give a final concentration in the assay of ˜1×10^3 cfu/ml. The microtiter plates were incubated under specific incubation conditions (see Table III). [table]

[2] = test system: Candida albicans ISI 1226; experiment: Minimal inhibitory concentration (MIC); type: cell-based
Description: as §1

[3] = test system: Lactobacillus brevis ISI 2269; experiment: Minimal inhibitory concentration (MIC); type: cell-based
Description: as §1

[4] = test system: Aspergillus niger ISI 3; experiment: Minimal inhibitory concentration (MIC); type: cell-based
Description: as §1

[5] = test system: Leuconostoc mesenteroides ISI 504; experiment: Minimal inhibitory concentration (MIC); type: cell-based
Description: as §1

[6] = test system: Debaryomyces hansenii ISI 12; experiment: Minimal inhibitory concentration (MIC); type: cell-based
Description: as §1

[7] = test system: Streptococcus termophilus ISI 1563; experiment: Minimal inhibitory concentration (MIC); type: cell-based
Description: as §1

[8] = test system: Pseudomonas aeruginosa ISI 1462; experiment: Minimal inhibitory concentration (MIC); type: cell-based
Description: as §1

[9] = test system: Coniophora puteana; experiment: Wood impregnation with 10 and 20% NBDA, 6 weeks of exposure; type: cell-based; conditions: for Corrected mass loss, Mean / Mass loss, Mean / Corrected mass loss / Mass loss: 6 weeks of exposure; for Corrected mass loss, Mean / Mass loss, Mean: mean of blocks; for Corrected mass loss / Mass loss: single blocks
Description: Below table presents results from impregnation with 10 and 20% NBDA to water phase. It is expected that concentrations of up to at least 35% NBDA and/or APDEA and/or 2,2′-(octylimino)bisethanol are showing promising results.

[10] = test system: Aspergillus niger ISI 3; experiment: Minimum bactericidal concentration (MBC); type: cell-based
Description: Even when no growth is detectable in the MIC tests, it is possible that the microorganisms have survived the treatment i.e., they are not killed but just prevented from growing. In order to test for survivors, MBC plates were subsequently made from the MIC plates.

[11] = test system: Enterococcus hierae, ATCC 10541; experiment: EN 1276 quantitative suspension test, bactericidal activity; type: cell-based, Enterococcus hirae; conditions: all tested contact times (5, 60 min) and concentrations (1.5%, 3%, 6%)
Description: The test was carried out according to EN 1276, 2019: Chemical disinfectants and antiseptics-Quantitative suspension test for the evaluation of bactericidal activity of chemical disinfectants and antiseptics used in food, industrial, domestic, and institutional areas-Test method and requirements. […] The growth media TSB (Tryptic Soy Broth) was separately inoculated with a culture loop of the microorganisms. The cultures were incubated at 37° C. for 24 hours. Bovine Serum Albumin with a final concentration of 3 g/L Polysorbate 80 with a concentration of 30 g/L The used method was Dilution-neutralization method. 1 mL of interfering substance was pipetted into a tube and 1 mL of the test suspension was added and mixed. […] The solution was incubated at 20° C. for 5 min. and 60 min. respectively. […] After 5 min. of neutralization time 100 μL of the mixture was added to a petri-dish containing TSA media. Another 100 μL was added to a tube containing 900 μL 0.9% NaCl and a serial dilution to 10^-5 was made. The mixtures added to the agar plates were evenly distributed with a Drigalski-spatula. The agar plates were incubated at 37° C. for 24 hours. After incubation, the number of surviving bacteria (CFU) was counted. The test was performed in 3 replicates.

[12] = test system: Vaccinia; experiment: ASTM E1052 Kill Time Screen test, antiviral activity; type: cell-based

CCCCN(CCO)CCO [NBDA, N-butyldiethanolamine]
MIC (%) [1]: 1.25%
MIC data (optical density) ([1]; 0.02% NBDA): 0.797 and 0.933
MIC data (optical density) ([1]; 0.04% NBDA): 0.953 and 0.926
MIC data (optical density) ([1]; 0.08% NBDA): 0.880 and 0.764
MIC data (optical density) ([1]; 0.16% NBDA): 0.716 and 0.833
MIC data (optical density) ([1]; 0.31% NBDA): 0.811 and 0.739
MIC data (optical density) ([1]; 0.63% NBDA): 0.664 and 0.824
MIC data (optical density) ([1]; 1.25% NBDA): 0.108 and 0.143
MIC data (optical density) ([1]; 2.50% NBDA): 0.100 and 0.145
MIC data (optical density) ([1]; 5.00% NBDA): 0.087 and 0.120
MIC (%) [2]: 0.63%
MIC data (optical density) ([2]; 0.02% NBDA): 1.272 and 1.291
MIC data (optical density) ([2]; 0.04% NBDA): 1.243 and 1.259
MIC data (optical density) ([2]; 0.08% NBDA): 1.223 and 1.256
MIC data (optical density) ([2]; 0.16% NBDA): 1.118 and 1.134
MIC data (optical density) ([2]; 0.31% NBDA): 0.886 and 0.984
MIC data (optical density) ([2]; 0.63% NBDA): 0.056
MIC data (optical density) ([2]; 1.25% NBDA): 0.051 and 0.050
MIC data (optical density) ([2]; 2.50% NBDA): 0.047 and 0.046
MIC data (optical density) ([2]; 5.00% NBDA): 0.042 and 0.044
MIC (%) [3]: 0.16%
MIC data (optical density) ([3]; 0.02% NBDA): 0.509 and 0.458
MIC data (optical density) ([3]; 0.04% NBDA): 0.468 and 0.485
MIC data (optical density) ([3]; 0.08% NBDA): 0.465 and 0.586
MIC data (optical density) ([3]; 0.16% NBDA): 0.054 and 0.057
MIC data (optical density) ([3]; 0.31% NBDA): 0.049 and 0.048
MIC data (optical density) ([3]; 0.63% NBDA): 0.047 and 0.046
MIC data (optical density) ([3]; 1.25% NBDA): 0.047 and 0.045
MIC data (optical density) ([3]; 2.50% NBDA): 0.046 and 0.049
MIC data (optical density) ([3]; 5.00% NBDA): 0.043 and 0.040
MIC (%) [4]: 0.63%
MIC (%) [5]: 0.31%
MIC data (optical density) ([5]; 0.02% NBDA): 1.025 and 0.943
MIC data (optical density) ([5]; 0.04% NBDA): 1.135 and 1.104
MIC data (optical density) ([5]; 0.08% NBDA): 1.005 and 1.027
MIC data (optical density) ([5]; 0.16% NBDA): 1.065 and 0.990
MIC data (optical density) ([5]; 0.31% NBDA): 0.051 and 0.052
MIC data (optical density) ([5]; 0.63% NBDA): 0.047 and 0.049
MIC data (optical density) ([5]; 1.25% NBDA): 0.046 and 0.047
MIC data (optical density) ([5]; 2.50% NBDA): 0.046
MIC data (optical density) ([5]; 5.00% NBDA): 0.044 and 0.041
MIC (%) [6]: 1.25%
MIC data (optical density) ([6]; 0.02% NBDA): 1.027 and 1.215
MIC data (optical density) ([6]; 0.04% NBDA): 0.964 and 1.224
MIC data (optical density) ([6]; 0.08% NBDA): 0.974 and 1.114
MIC data (optical density) ([6]; 0.16% NBDA): 0.975 and 1.145
MIC data (optical density) ([6]; 0.31% NBDA): 0.877 and 0.973
MIC data (optical density) ([6]; 0.63% NBDA): 0.619 and 0.582
MIC data (optical density) ([6]; 1.25% NBDA): 0.047
MIC data (optical density) ([6]; 2.50% NBDA): 0.045 and 0.046
MIC data (optical density) ([6]; 5.00% NBDA): 0.044 and 0.043
MIC (%) [7]: 0.63%
MIC data (optical density) ([7]; 0.02% NBDA): 0.57 and 0.515
MIC data (optical density) ([7]; 0.04% NBDA): 0.445 and 0.473
MIC data (optical density) ([7]; 0.08% NBDA): 0.431 and 0.462
MIC data (optical density) ([7]; 0.16% NBDA): 0.444 and 0.438
MIC data (optical density) ([7]; 0.31% NBDA): 0.115 and 0.108
MIC data (optical density) ([7]; 0.63% NBDA): 0.046 and 0.043
MIC data (optical density) ([7]; 1.25% NBDA): 0.044 and 0.045
MIC data (optical density) ([7]; 2.50% NBDA): 0.049
MIC data (optical density) ([7]; 5.00% NBDA): 0.041 and 0.042
MIC (%) [8]: 0.63%
MIC data (optical density) ([8]; 0.02% NBDA): 1.725 and 1.921
MIC data (optical density) ([8]; 0.04% NBDA): 1.894 and 1.661
MIC data (optical density) ([8]; 0.08% NBDA): 1.938 and 1.871
MIC data (optical density) ([8]; 0.16% NBDA): 1.888 and 1.911
MIC data (optical density) ([8]; 0.31% NBDA): 1.668 and 1.319
MIC data (optical density) ([8]; 0.63% NBDA): 0.047 and 0.044
MIC data (optical density) ([8]; 1.25% NBDA): 0.045 and 0.043
MIC data (optical density) ([8]; 2.50% NBDA): 0.046 and 0.047
MIC data (optical density) ([8]; 5.00% NBDA): 0.045
wood protection at high concentrations ([9]; impregnation with 10 and 20% NBDA to water phase): strong results
Corrected mass loss, Mean ([9]; solution conc. 10.00 % w/w): 0.3%
Mass loss, Mean ([9]; solution conc. 10.00 % w/w): −0.4%
Corrected mass loss ([9]; solution conc. 10.00 % w/w): −0.4% and 0.3% and 0.9% and 0.0% and 1.1% and −0.2% and −0.8%
Mass loss ([9]; solution conc. 10.00 % w/w): −0.9% and −0.2% and 0.4% and −0.5% and 0.6% and −0.7% and −1.3%
Corrected mass loss, Mean ([9]; solution conc. 20.00 % w/w): 0.0%
Mass loss, Mean ([9]; solution conc. 20.00 % w/w): −1.5%
Corrected mass loss ([9]; solution conc. 20.00 % w/w): 0.3% and −0.1% and −0.5% and −0.8% and −0.7% and −0.6%
Mass loss ([9]; solution conc. 20.00 % w/w): −0.7% and −1.1% and −1.6% and −1.8% and −1.7%
MBC (%) [10]: 0.63%
log changes of CFU [11]: lower than 5 log units
Mean log reduction after 60 seconds ([12]; 1.0% NBDA): 0.17
Mean log reduction after 60 seconds ([12]; 5.0% NBDA): 0.09
